Source: US10668094B2, “Selective inhibitors of Alpha2-containing isoforms of Na,K-ATPase and use thereof for reduction of intraocular pressure” (Yeda Research and Development Co. Ltd., priority 2015, dated 2020)
“Also recorded” adds a separate entry of the source. Where two headings read alike, the source gives them in different places.

Columns and labels:
[1] = target: human Na,K-ATPase α1β1FXYD1 (Homo sapiens (Human), UniProt P05023); type: biochemical; conditions: for Ki: read-out: Ki in nM ± SEM α1β1
[2] = target: human Na,K-ATPase α2β1FXYD1 (Homo sapiens, UniProt P50993); type: biochemical; conditions: read-out: Ki in nM ± SEM α2β1
[3] = test system: human Na,K-ATPase α2β1FXYD1; type: biochemical
[4] = target: human Na,K-ATPase α2β2FXYD1 (Homo sapiens (Human), UniProt P50993); type: biochemical; conditions: for Ki: read-out: Ki in nM ± SEM α2β2
[5] = target: human Na,K-ATPase α2β3FXYD1 (Homo sapiens (Human), UniProt P50993+P54709); assay: biochemical; type: biochemical
[6] = test system: Na,K-ATPase in bovine ciliary NPE cells; assay: biochemical; conditions: 1 site model; read-out: Ki, nM ± SEM
[7] = test system: 4AP-induced IOP in rabbits; type: in vivo, rabbit
[8] = test system: basal IOP in rabbits; assay: Basal IOP in rabbits, topical administration; type: in vivo, rabbit; conditions: for effect on lowering basal IOP: one drop of 1 mM solution, other eye PBS
[9] = test system: Na,K-ATPase isoforms α1, α2, α3; conditions: cited from earlier work

Row | Structure (SMILES) | Ki [1] [nM] | Ki [2] [nM] | Selectivity Ki ratio α1β1/α2β1 [3] | Selectivity Ki ratio α1β1/α2β2 [4] | Ki [4] [nM] | Selectivity Ki ratio α1β1/α2β3 [5] | selectivity for α2β3 over α1β1 (Ki α1β1:α2β3 ratio) [5] | Ki ([5]; read-out: Ki in nM ± SEM α2β3) [nM] | Ki for α1β1 lower than for digoxin [1] | Ki [5] [nM] | Ki for α2β3 lower than for digoxin [5] | Ki [6] [nM] | concentration that prevents the 4AP-induced rise in IOP ([7]; one drop topically prior to 4AP) [mM] | effect on lowering basal IOP [8] | reduction of basal IOP ([8]; rabbit with a basal IOP of 17 mm Hg) | reduction of basal IOP ([8]; topical, test period of 4-5 hours) | effect on 4AP-induced IOP ([7]; 10 μM) | lower Ki values for α2 compared to α1 [9]
1 | CC1CN(CC2CC(C)(C)C2)CCC(O[C@@H]2[C@H](C)O[C@@H](O[C@@H]3[C@H](C)O[C@@H](O[C@H]4CC[C@@]5(C)C(CCC6C5C[C@H](O)[C@]5(C)[C@@H](C7=CC(=O)OC7)CC[C@]65O)C4)C[C@@H]3O)C[C@@H]2O)O1 (stereo partly drawn) [DMDMcB, 4-((3S,5R,8R,9S10S,12R,13S,14S,17R)-3-(((2S,4S,5R,6R)-5-(((2S,4S,5S,6R)-5-((4-((3,3-dimethylcyclobutyl)methyl)-2-methyl-1,4-oxazepan-7-yl)oxy)-4-hydroxy-6-methyltetrahydro-2H-pyran-2-yl)oxy)-4-hydroxy-6-methyltetrahydro-2H-pyran-2-yl)oxy)-12,14-dihydroxy-10,13-dimethylhexadecahydro-1H-cyclopenta[a]phenanthren-17-yl)furan-2(5H)-one] | 31.6 ± 0.5 | 8.6 ± 1.4 | 3.69 | 6.16 | 5.1 ± 0.5 | 8.19 | 10-12 fold | 3.9 ± 0.7 |  |  |  |  |  |  |  |  |  | 
2 | CC1CN(CC2CC2)CCC(O[C@@H]2[C@H](C)O[C@@H](O[C@@H]3[C@H](C)O[C@@H](O[C@H]4CC[C@@]5(C)C(CCC6C5C[C@H](O)[C@]5(C)[C@@H](C7=CC(=O)OC7)CC[C@]65O)C4)C[C@@H]3O)C[C@@H]2O)O1 (stereo partly drawn) [DMcP] | 95.8 ± 13.7 | 18.3 ± 1.6 | 5.2 | 12 | 8 ± 0.8 | 22.2 | 22 fold | 4.3 ± 0.6 | 2-3 fold | ~4 | about 10 fold | 7.9 ± 2.2 | 0.01 | notable effect | about 4 mm Hg | 20-25% |  | 
3 | CC1CN(C)CCC(O[C@@H]2[C@H](C)O[C@@H](O[C@@H]3[C@H](C)O[C@@H](O[C@H]4CC[C@@]5(C)C(CCC6C5C[C@H](O)[C@]5(C)[C@@H](C7=CC(=O)OC7)CC[C@]65O)C4)C[C@@H]3O)C[C@@H]2O)O1 (stereo partly drawn) [DMe] | 103 ± 5.6 | 15.3 ± 1.2 | 6.7 | 5.1 | 20.4 ± 1.8 | 9.5 |  | 10.8 ± 0.6 |  |  |  | 15.6 ± 1.3 |  |  |  |  |  | 
4 | CCCN1CCC(O[C@@H]2[C@H](C)O[C@@H](O[C@@H]3[C@H](C)O[C@@H](O[C@H]4CC[C@@]5(C)C(CCC6C5C[C@H](O)[C@]5(C)[C@@H](C7=CC(=O)OC7)CC[C@]65O)C4)C[C@@H]3O)C[C@@H]2O)OC(C)C1 (stereo partly drawn) [DP] | 87.7 ± 7.9 | 18.3 ± 1.68 | 4.8 | 8.3 | 10.5 ± 1.8 | 8.8 |  | 9.8 ± 1.1 |  |  |  |  |  |  |  |  |  | 
5 | CC1CN(C[Si](C)(C)C)CCC(OC2C(O)CC(OC3C(O)CC(OC4CCC5(C)C(CCC6C5CC(O)C5(C)C(C7=CC(=O)OC7)CCC65O)C4)OC3C)OC2C)O1 (stereo not drawn) [DTMS] | 72.6 ± 17.6 | 24.3 ± 4 | 3 | 5.1 | 14.3 ± 1.3 | 6.5 |  | 11.1 ± 1.6 |  |  |  |  |  |  |  |  |  | 
6 | CC1CN(C2CC2)CCC(O[C@@H]2[C@H](C)O[C@@H](O[C@@H]3[C@H](C)O[C@@H](O[C@H]4CC[C@@]5(C)C(CCC6C5C[C@H](O)[C@]5(C)[C@@H](C7=CC(=O)OC7)CC[C@]65O)C4)C[C@@H]3O)C[C@@H]2O)O1 (stereo partly drawn) [DcP, 4-((3S,5R,8R,9S,10S,12R,13S,14S,17R)-3-(((2R,4S,5S,6R)-5-(((2S,4S,5S,6R)-5((4-cyclopropyl-2-methyl-1,4-oxazepan-7-yl)oxy)-4-hydroxy-6-methyltetrahydro-2H-pyran-2-yl)oxy)-4-hydroxy-6-methyltetrahydro-2H-pyran-2-yl)oxy)-12,14-dihydroxy-10,13-dimethythylhexadecahydro-1H-cyclopenta[a]phenanthren-17-yl)furan-2(5H)-one] | 109 ± 6.2 | 14.6 ± 11.6 | 7.5 | 8.5 | 13 ± 1.3 | 13.4 |  | 8.1 ± 1.36 |  |  |  |  |  |  |  |  |  | 
7 | CC(C)CN1CCC(O[C@@H]2[C@H](C)O[C@@H](O[C@@H]3[C@H](C)O[C@@H](O[C@H]4CC[C@@]5(C)C(CCC6C5C[C@H](O)[C@]5(C)[C@@H](C7=CC(=O)OC7)CC[C@]65O)C4)C[C@@H]3O)C[C@@H]2O)OC(C)C1 (stereo partly drawn) [DiB] | 92 | 20.6 ± 1.4 |  |  |  |  |  |  |  |  |  |  |  | lack of effect; also recorded: neither digoxin nor DiB had a significant effect |  |  | still effective | 
8 | CC1CN(C(C)C)CCC(O[C@@H]2[C@H](C)O[C@@H](O[C@@H]3[C@H](C)O[C@@H](O[C@H]4CC[C@@]5(C)C(CCC6C5C[C@H](O)[C@]5(C)[C@@H](C7=CC(=O)OC7)CC[C@]65O)C4)C[C@@H]3O)C[C@@H]2O)O1 (stereo partly drawn) [DiP] | 149 | 28.9 ± 1.7 | 5.1 | 8.9 | 16.7 ± 1.9 | 14.4 |  | 10.3 ± 1.8 |  |  |  |  |  |  |  |  |  | 
9 | C[C@H]1O[C@@H](O[C@H]2[C@@H](O)C[C@H](O[C@H]3[C@@H](O)C[C@H](O[C@H]4CC[C@@]5(C)[C@H](CC[C@@H]6[C@@H]5CC[C@]5(C)[C@@H](C7=CC(=O)OC7)CC[C@]65O)C4)O[C@@H]3C)O[C@@H]2C)C[C@H](O)[C@@H]1O [Digitoxin, digitoxin] |  |  |  |  |  |  |  |  |  |  |  |  |  |  |  |  |  | 3-4 fold
10 | C[C@H]1O[C@@H](O[C@H]2[C@@H](O)C[C@H](O[C@H]3[C@@H](O)C[C@H](O[C@H]4CC[C@@]5(C)[C@H](CC[C@@H]6[C@@H]5C[C@@H](O)[C@]5(C)[C@@H](C7=CC(=O)OC7)CC[C@]65O)C4)O[C@@H]3C)O[C@@H]2C)C[C@H](O)[C@@H]1O [Digoxin, digoxin, reference compound] |  |  |  |  |  |  |  |  |  |  |  | 91.7 ± 10.2 |  | lack of effect; also recorded: neither digoxin nor DiB had a significant effect |  |  |  | 3-4 fold
11 | CC1CN(C(C)(C)C)CCC(O[C@@H]2[C@H](C)O[C@@H](O[C@@H]3[C@H](C)O[C@@H](O[C@H]4CC[C@@]5(C)C(CCC6C5C[C@H](O)[C@]5(C)[C@@H](C7=CC(=O)OC7)CC[C@]65O)C4)C[C@@H]3O)C[C@@H]2O)O1 (stereo partly drawn) [DtB] | 135 | 21.6 ± 5.6 | 6.2 | 7.3 | 18.4 ± 1.1 | 8.2 |  | 16.3 ± 0.28 |  |  |  |  |  |  |  |  |  | 
